# From US20250368958A1, “CAR-EXPRESSING PLURIPOTENT STEM CELL-DERIVED NEUTROPHILS LOADED WITH DRUG NANOPARTICLES AND USES THEREOF” (Purdue Research Foundation, priority 2022, published 2025)
# Assays:
# U87MG tumor spheroids = assay: 3D tumor spheroid model; type: cell-based, human; conditions: drug delivered by CAR-neutrophils@R—SiO2 NPs
# Procedure: A three-dimensional (3D) tumor spheroid model was then employed to evaluate the tumor-penetration ability of R—SiO2-TPZ NP-loaded CAR-neutrophils (FIG. 6G). 3D tumor spheroids were generated by the hanging-drop method. Briefly, U87MG cells were suspended in minimum essential medium (MEM) medium with 10% FBS and 0.3% methylcellulose at 2×10^6 cells/mL and deposited onto an inverted lid of 96-well plate as an individual drop using a 20 μL pipettor. The cover lid was then placed back onto the PBS-filled bottom chamber, and the whole plate was incubated at 37° C. and 5% CO2. The hanging drops were monitored daily until cell aggregates were formed in 5-7 days. Each cell aggregate was transferred to a single well of a 24-well plate for subsequent experiments.
# To assess the tumor penetration capability of CLTX-CAR neutrophils, 2×10^5 neutrophils/well were added to the wells of 24-well plate and incubated with tumor spheroids. After co-incubation for 24 hours, tumor spheroids were fixed and stained for CD45 and DAPI. For cytotoxicity analysis, both live/dead cell staining and the CytoTox-Glo™ Cytotoxicity Assay kit (Promega Corporation, Madison, WI) were employed. The CytoTox-Glo™ Cytotoxicity Assay was quantified by the SpectraMax iD3 microplate reader (Molecular Devices, Sunnyvale, CA).
# [1] = tested on: tumor-neutrophil co-culture; assay: Tumor lysis with phagocytosis or ROS inhibitor; type: cell-based
# Procedure: FIG. 16A is a volcano map of bulk RNA-Seq analysis of U87MG cells under indicated treatments. FIGS. 16B and 16C show tumor lysis measurements of the indicated groups treated with 5 μM cytochalasin D (CytoD) or 5 mM N-acetylcysteine (NAC), respectively.
# RNA sequencing (RNA-seq) analysis on tumor cells was performed to elucidate potential molecular mechanism underlying enhanced anti-tumor cytolysis of neutrophils by CAR expression and R—SiO2-TPZ NP. […] To further understand enhanced anti-tumor activities of R—SiO2-TPZ-loaded CAR-neutrophils, a phagocytosis inhibitor cytochalasin D and a reactive oxygen species (ROS) inhibitor N-acetyl-cysteine (NAC) were applied to the tumor-neutrophil co-culture.
smiles,measurement,setting,value
Nc1nc2cc(CC[C@H]3C[C@@H](n4ccc5c(N)ncnc54)[C@H](O)[C@@H]3O)ccc2cc1Br [JNJ64619187],killing of GBM cells in 3D tumor models,U87MG tumor spheroids,efficiently kill GBM cells
"CC(=O)N[C@@H](CS)C(=O)O [NAC, N-acetyl-cysteine]",cytolysis of tumor cells by CAR-neutrophils in presence of inhibitor,[1]; 5 mM,significantly reduced
C=C1[C@@H](C)[C@H]2[C@H](Cc3ccccc3)NC(=O)[C@]23[C@H](OC(C)=O)/C=C/[C@@](C)(O)C(=O)[C@@H](C)C/C=C/[C@H]3[C@@H]1O [cytochalasin D],cytolysis of tumor cells by CAR-neutrophils in presence of inhibitor,[1]; 5 μM,significantly reduced
